Assay results reported in ChEMBL document CHEMBL6074675, “4-Substituted-2-Thiazole Amides as Viral Replication Inhibitors of Alphaviruses” (J Med Chem, 2024).
≈ marks a conversion by molar mass, not a printed value.

Key:
[1] = Octanol/PBS buffer distribution coefficient, logD of the compound at pH 7.5 by LC-MS analysis; format: physicochemical
Chikungunya virus [2] = test: Antiviral activity against Chikungunya virus 181/25 infected in human NHDF cells assessed as log reduction of virus titer at 10 uM treated with cells at 1 hr prior to infection and measured at 24 hrs post-infection by plaque assay; format: functional; conditions: time 25 hrs
[3] = Half life of the compound in mouse liver microsomes in presence of NADPH by LC-MS/MS analysis; format: ADME, Microsome
[4] = Half life of the compound in human liver microsomes in presence of NADPH by LC-MS/MS analysis; format: ADME, Microsome
[5] = Cytotoxicity against human NHDF cells deficient of IRF3 assessed as reduction in cell viability incubated for 72 hrs by CellTiter Glo luminescence assay; format: toxicity, cell-based
[6] = Kinetic solubility of the compound in simulated intestinal fluid at pH 7.5 by LC-MS analysis; format: physicochemical; conditions: read-out: Kinetic_solubility
Chikungunya virus [7] = test: Antiviral activity against Chikungunya virus 181/25 infected in human NHDF cells assessed as reduction of virus titer treated with cells at 1 hr prior to infection and measured at 24 hrs post-infection by plaque assay; format: functional, organism-based; conditions: 181/25, NHDF; for EC90: time 25 hrs
dengue virus type 2 [8] = test: Antiviral activity against Dengue virus 2 NGC infected in human HEK293 cells assessed as reduction of virus load measured at 3 days post-infection by focus-forming assay; format: functional; conditions: HEK293, 72 h, time 3 day
Zika virus [9] = test: Antiviral activity against Zika virus PRABC59 infected in human HEK293 cells assessed as log reduction of virus titer at 10 uM measured at 3 days post-infection by focus-forming assay; format: functional; conditions: time 3 day
Zika virus [10] = test: Antiviral activity against Zika virus PRABC59 infected in human HEK293 cells assessed as reduction of virus load measured at 3 days post-infection by focus-forming assay; format: functional; conditions: PRABC59, HEK293, 72 h, time 3 day
dengue virus type 2 [11] = test: Antiviral activity against Dengue virus 2 NGC infected in human HEK293 cells assessed as log reduction of virus titer at 10 uM measured at 3 days post-infection by focus-forming assay; format: functional; conditions: time 3 day
[12] = tested on: Venezuelan equine encephalitis virus; test: Antiviral activity against VEEV TC-83 infected in human NHDF cells assessed as reduction of virus titer treated with cells at 1 hr prior to infection and measured at 24 hrs post-infection by plaque assay; format: functional; conditions: TC-83, NHDF, time 25 hrs
[13] = tested on: Venezuelan equine encephalitis virus; test: Antiviral activity against VEEV TC-83 infected in human NHDF cells assessed as log reduction of virus titer at 10 uM treated with cells at 1 hr prior to infection and measured at 24 hrs post-infection by plaque assay; format: functional; conditions: time 25 hrs
West Nile virus [14] = test: Antiviral activity against West Nile virus NY99 infected in human HEK293 cells assessed as log reduction of virus titer at 10 uM measured at 3 days post-infection by focus-forming assay; format: functional; conditions: time 3 day
[15] = Cytotoxicity against human NHDF cells assessed as reduction in cell viability incubated for 24 hrs by CellTiter Glo luminescence assay; format: toxicity, cell-based
West Nile virus [16] = test: Antiviral activity against West Nile virus NY99 infected in human HEK293 cells assessed as reduction of virus load measured at 3 days post-infection by focus-forming assay; format: functional; conditions: NY99, HEK293, 72 h, time 3 day
[17] = Cytotoxicity against human HEK293 cells; format: toxicity, cell-based
Chikungunya virus [18] = test: Antiviral activity against Chikungunya virus infected in human NHDF cells assessed as inhibition of viral production by NanoLuc reporter assay; format: functional, organism-based
[19] = Cytotoxicity against African green monkey VeroE6 cells assessed as reduction in cell viability incubated for 72 hrs by CellTiter Glo luminescence analysis; format: toxicity, cell-based, Vero C1008; conditions: chlorocebus sabaeus
Chikungunya virus [20] = test: Antiviral activity against Chikungunya virus Sri Lanka strain infected in African green monkey Vero E6 cells assessed as inhibition of virus-induced cytopathic effect incubated for 72 hrs by CellTiter Glo luminescence assay; format: functional, organism-based; conditions: Vero C1008, 72 h

SMILES | logD [1] | log(activity) (Chikungunya virus [2]) | half-life [3] | half-life [4] | CC50 at 72 h [5] | solubility kinetic [6] | EC90 (Chikungunya virus [7]) | further results
CSc1ncccc1C(=O)Nc1nc(-c2cccc(-c3ccccc3)c2)cs1 | > 4.15 | 7.8 | 51 min | 34 min | > 30 µM | < 1 µM |  | 
CC(C)(C)c1ncc(C(=O)Nc2nc(-c3ccc4ccccc4c3)cs2)s1 | > 3.03 | 7.5 | 9 min | 51 min | > 30 µM | < 1 µM | 3.5 µM | 
CSc1ncccc1C(=O)Nc1nc(-c2cccc(-c3ccc(C#N)cc3)c2)cs1 | > 4.66 | 4.7 | 57 min | 39 min | > 30 µM | < 1 µM |  | 
CSc1ncccc1C(=O)Nc1nc(-c2cccc(Nc3ccc(CN)cc3)c2)cs1 | 2.2 | 1.2 | 234 min | 37 min | 15.4 µM | 33 µM (≈ 14.8 µg/mL) | 9.8 µM | 
CSc1ncccc1C(=O)Nc1nc(-c2cccc(N3CCNCC3)c2)cs1 | 1.8 | 8.7 | 211 min | > 300 min | > 30 µM | 59 µM (≈ 24.3 µg/mL) |  | 
CSc1ncccc1C(=O)Nc1nc(-c2ccc3ncccc3c2)cs1 | 3.8 | 1.2 | 13 min | 17 min | 18 µM | 56 µM (≈ 21.2 µg/mL) | 7.9 µM | 
CSc1ncccc1C(=O)Nc1nc(-c2cccc(-c3cccc(C#N)c3)c2)cs1 | 3 | 5.3 | 31 min | 21 min | > 30 µM | < 1 µM | 0.1 µM | EC90 (dengue virus type 2 [8]): 0.3 µM; log(activity) (Zika virus [9]): 3.5; EC90 (Zika virus [10]): 0.3 µM; log(activity) (dengue virus type 2 [11]): 2.9; EC90 [12]: 0.35 µM; log(activity) [13]: 5.2; log(activity) (West Nile virus [14]): 2.7; CC50 at 24 h [15]: > 30 µM; EC90 (West Nile virus [16]): 1.5 µM; CC50 [17]: > 30 µM
CSc1ncccc1C(=O)Nc1nc(-c2cc(F)cc(-c3ccc(C#N)cc3)c2)cs1 | > 4.09 | 6.1 | 123 min | 53 min | > 30 µM | < 1 µM |  | 
CSc1ncccc1C(=O)Nc1nc(-c2cc(C(=O)O)cc(-c3ccc(C#N)cc3)c2)cs1 | 1.9 | 0 | > 300 min | > 300 min | > 40 µM | < 1 µM |  | 
CSc1ncccc1C(=O)Nc1nc(-c2cccc(Nc3ccc(C#N)c(O)c3)c2)cs1 | > 3.46 | 1.2 | 35 min | 43 min | 15.9 µM | 1 µM (≈ 0.46 µg/mL) | 10.1 µM | 
CC(C)(C)c1ccc(C(=O)Nc2nc(-c3ccc4ccccc4c3)cs2)cc1 | > 3.32 | 4.3 | 8 min | 49 min | > 30 µM | < 1 µM | 0.1 µM | 
CC(C)(C#N)c1ccc(C(=O)Nc2nc(-c3ccc4ccccc4c3)cs2)cc1 | > 3.85 | 2.6 | 129 min | 98 min | > 30 µM | < 1 µM | 1.5 µM | 
CSc1ncccc1C(=O)Nc1nc(-c2cc(-c3ccc(C#N)cc3)ccc2F)cs1 | 2 | 5.8 | 69 min | 85 min | > 30 µM | < 1 µM |  | 
CCOC(=O)N1CCN(c2cc(-c3ccc(C#N)cc3)cc(-c3csc(NC(=O)c4cccnc4SC)n3)c2)CC1 | > 3.99 | 8.1 | 63 min | 21 min | > 40 µM | < 1 µM | 0.02 µM | EC90 (dengue virus type 2 [8]): 0.3 µM; log(activity) (Zika virus [9]): 3.5; EC90 (Zika virus [10]): 0.15 µM; log(activity) (dengue virus type 2 [11]): 3.3; EC90 [12]: 0.02 µM; log(activity) [13]: 4.9; log(activity) (West Nile virus [14]): 4; CC50 at 24 h [15]: > 30 µM; EC90 (West Nile virus [16]): 0.15 µM; CC50 [17]: > 30 µM
COc1cc(Nc2cccc(-c3csc(NC(=O)c4cccnc4SC)n3)c2)ccc1C#N | > 4.33 | 5.1 | 34 min | 25 min | > 30 µM | < 1 µM |  | EC90 (dengue virus type 2 [8]): 0.4 µM; log(activity) (Zika virus [9]): 3; EC90 (Zika virus [10]): 0.5 µM; log(activity) (dengue virus type 2 [11]): 3; EC90 [12]: 0.21 µM; log(activity) [13]: 2; log(activity) (West Nile virus [14]): 2.9; CC50 at 24 h [15]: > 30 µM; EC90 (West Nile virus [16]): 1.2 µM; CC50 [17]: > 30 µM
CSc1ncccc1C(=O)Nc1nc(-c2ccc3ccccc3c2)cs1 | 4.8 | 6.9 | 27 min | 35 min | > 40 µM | < 1 µM | 0.93 µM | EC50 (Chikungunya virus [7]): 4.7 µM; EC50 (Chikungunya virus [18]): 1.06 µM; CC50 at 24 h [15]: 132 µM; CC50 at 72 h [19]: 107 µM; EC50 (Chikungunya virus [20]): 4.5 µM
CSc1ncccc1C(=O)Nc1nc(-c2cccc(Nc3ccc(C#N)c(C(=O)O)c3)c2)cs1 | 1.4 | 0.15 | 72 min | 145 min | > 40 µM | 84 µM (≈ 41 µg/mL) | > 40 µM | 
CSc1ncccc1C(=O)Nc1nc(-c2cccc(-c3ccccn3)c2)cs1 | > 3.83 | 4 | 8 min | 15 min | > 30 µM | < 1 µM | 0.7 µM | 
CSc1ncccc1C(=O)Nc1nc(-c2cc(Nc3ccc(C#N)cc3)cc(N3CCOCC3)c2)cs1 | > 3.92 | 5.1 | 64 min | 15 min | > 40 µM | < 1 µM | 0.1 µM | EC90 (dengue virus type 2 [8]): 1.8 µM; log(activity) (Zika virus [9]): 1.7; EC90 (Zika virus [10]): 0.8 µM; log(activity) (dengue virus type 2 [11]): 1.9; EC90 [12]: 0.45 µM; log(activity) [13]: 3.81; CC50 at 24 h [15]: > 30 µM; EC90 (West Nile virus [16]): 24 µM; CC50 [17]: > 30 µM
CSc1ncccc1C(=O)Nc1nc(-c2cccc(Nc3cccc(C#N)c3)c2)cs1 | > 3.54 | 5.7 | 33 min | 25 min | > 30 µM | < 1 µM |  | EC90 (dengue virus type 2 [8]): 0.5 µM; log(activity) (Zika virus [9]): 3.4; EC90 (Zika virus [10]): 0.4 µM; log(activity) (dengue virus type 2 [11]): 3.7; EC90 [12]: 0.6 µM; log(activity) [13]: 7.3; log(activity) (West Nile virus [14]): 4.3; CC50 at 24 h [15]: > 30 µM; EC90 (West Nile virus [16]): 1.1 µM; CC50 [17]: > 30 µM
CC(C)(C(=O)O)c1ccc(C(=O)Nc2nc(-c3ccc4ccccc4c3)cs2)cc1 | 2.1 | 0 | 213 min | 292 min | > 30 µM | 64 µM (≈ 26.7 µg/mL) |  | 
CSc1ncccc1C(=O)Nc1nc(-c2cccc(Nc3ccc(C#N)cn3)c2)cs1 |  | 2.2 | 17 min | 19 min | 40 µM | < 1 µM | 4.8 µM | 
Cc1ncccc1C(=O)Nc1nc(-c2ccc3ccccc3c2)cs1 | > 4.27 | 1.9 | 26 min | 26 min | > 30 µM | 3 µM (≈ 1.04 µg/mL) | 3.2 µM | 
O=C(Nc1nc(-c2ccc3ccccc3c2)cs1)c1cc(F)c(O)c(F)c1 | > 3.45 | 7.6 | 36 min | 137 min | 20 µM | < 1 µM | 2.9 µM | 
CSc1ncccc1C(=O)Nc1nc(-c2cccc(-c3ccc(C#N)c(O)c3)c2)cs1 | > 3.91 | 8.5 | 49 min | 43 min | > 30 µM | 3 µM (≈ 1.33 µg/mL) |  | 
CSc1ncccc1C(=O)Nc1nc(-c2cccc(-c3ccc(C#N)cn3)c2)cs1 | > 3.97 | 6 | 34 min | 25 min | > 30 µM | < 1 µM |  | 
